Test systems include SNB-19; NCI-H23; OVCAR-3; SNB-75; SK-MEL-5; LOX IMVI; HCT-116; SW-620; DU-145; OVCAR-8; MOLT-4; RPMI-8226; BT-549; MDA-MB-231; UACC-62; COLO 205; K562; HOP-92; NCI-H226; HL-60.
What all share (experiment): NCI-60 cell line screen, 48 h

The values below come from ChEMBL document CHEMBL1201862, “PubChem BioAssay data set” (2004).

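The compound was tested at five concentrations on cells cultured in 96-well plates, with a 48-hour exposure period. The concentration for 50% growth inhibition is given as GI50.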 Calls of active or inactive are those of the source. Cut-off read from the data, not from the text of the source: active = GI50 up to about 1.1 µM and inactive = higher. Bounds are passed on as bounds.

For `O=C(O)c1c2c(c(O)c3c1CN(C1CCCCC1)CO3)OCN(C1CCCCC1)C2`, the GI50 is > 100 µM (inactive) in the assay on SNB-19; > 100 µM (inactive) in the assay on NCI-H23; 69 µM (inactive) in the assay with OVCAR-3; > 100 µM (inactive) in the assay on SNB-75; > 100 µM (inactive) in the assay on SK-MEL-5; 21.3 µM (inactive) in the assay with LOX IMVI. Further, the GI50 in the assay with HCT-116 was 39.3 µM (inactive); in the assay on SW-620, 22 µM (inactive); in the assay with DU-145 it was > 100 µM (inactive); with OVCAR-8, 45.1 µM (inactive); in the assay on MOLT-4 it was 18.5 µM (inactive); in the assay on RPMI-8226, 40.5 µM (inactive). Also, the GI50 is > 100 µM (inactive) in the assay on BT-549; 46.7 µM (inactive) with MDA-MB-231; > 100 µM (inactive) with UACC-62; > 100 µM (inactive) in the assay on COLO 205; 31.3 µM (inactive) with K562; > 100 µM (inactive) in the assay with HOP-92.

For `CCOP(=O)(OCC)C(C)(C)OC(=O)NC(F)(F)F`, the GI50 in the assay on NCI-H226 is 12.7 µM (inactive); in the assay with SNB-19, > 100 µM (inactive); with NCI-H23, > 100 µM (inactive); in the assay with OVCAR-3, > 100 µM (inactive); in the assay with SNB-75, > 100 µM (inactive); with SK-MEL-5, > 100 µM (inactive). Besides, the GI50 in the assay on HL-60, in the assay on LOX IMVI, in the assay with HCT-116, in the assay on SW-620, with DU-145 and in the assay on OVCAR-8 was > 100 µM (inactive) in each case. For the same compound, the GI50 with MOLT-4, in the assay on RPMI-8226, with BT-549, with MDA-MB-231, with UACC-62 and in the assay with COLO 205 was > 100 µM (inactive) each time. Also, the GI50 in the assay with K562 is > 100 µM (inactive).

For the compound `COC(OC)C(O)C1OC=CC1n1cnc2c(N)ncnc21` (stereo unspecified), the GI50 in the assay on NCI-H226 is > 100 µM (inactive); in the assay on NCI-H23, > 100 µM (inactive); in the assay with OVCAR-3 it was > 100 µM (inactive); with SNB-75 it was 18.3 µM (inactive); in the assay on SK-MEL-5, > 100 µM (inactive); with LOX IMVI it was > 100 µM (inactive). Further, the GI50 in the assay on HCT-116, with SW-620, in the assay with DU-145, in the assay on MOLT-4, in the assay on RPMI-8226 and in the assay with BT-549 was > 100 µM (inactive) throughout. Moreover, the GI50 in the assay on MDA-MB-231, in the assay with UACC-62, in the assay on COLO 205, in the assay on K562 and in the assay on HOP-92 was > 100 µM (inactive) in each case.

Turning to `c1cc(CSP234N5CCN2CCN3CCN4CC5)cc(CSP234N5CCN2CCN3CCN4CC5)c1`, the GI50 in the assay on SNB-19 was 27.9 µM (inactive); in the assay with NCI-H23 it was 41.2 µM (inactive); in the assay with OVCAR-3 it was 32.3 µM (inactive); in the assay on SNB-75, 20.1 µM (inactive); in the assay on SK-MEL-5 it was 16.3 µM (inactive); with HL-60, 3.56 µM (inactive). In addition, the GI50 with LOX IMVI was 16.1 µM (inactive); with HCT-116, > 100 µM (inactive); in the assay with SW-620, 28.8 µM (inactive); with DU-145, > 100 µM (inactive); in the assay with OVCAR-8, 18.6 µM (inactive); in the assay on MOLT-4, 15.7 µM (inactive). Further, the GI50 was 14.5 µM (inactive) with RPMI-8226; 19.2 µM (inactive) in the assay on BT-549; 14.8 µM (inactive) in the assay with MDA-MB-231; 16.8 µM (inactive) with UACC-62; 23 µM (inactive) with COLO 205; < 0.01 µM (active) with K562. Also, the GI50 in the assay with HOP-92 was 21.5 µM (inactive).

In the case of `O=C(O)c1nc2ccc(C(F)(F)F)cc2nc1NCc1ccc(Cl)c(Cl)c1`, the GI50 was 17.3 µM (inactive) with NCI-H226; 12.6 µM (inactive) in the assay on SNB-19; 17.7 µM (inactive) in the assay on NCI-H23; 7.78 µM (inactive) in the assay on OVCAR-3; 20.7 µM (inactive) in the assay on SNB-75; 21.4 µM (inactive) in the assay on SK-MEL-5. The GI50 in the assay on LOX IMVI was 15.1 µM (inactive); in the assay on HCT-116, 16.2 µM (inactive); in the assay with SW-620, 19.4 µM (inactive); in the assay with DU-145, 17 µM (inactive); with OVCAR-8, 16.3 µM (inactive); with MOLT-4, 12.3 µM (inactive). The GI50 with RPMI-8226 is 27.7 µM (inactive); in the assay on BT-549 it was 17.5 µM (inactive); with MDA-MB-231, 16.8 µM (inactive); in the assay on UACC-62 it was 17.1 µM (inactive); with COLO 205, 20.1 µM (inactive); with K562, 16.9 µM (inactive). Besides, in the assay on HOP-92, the GI50 is 15.7 µM (inactive).

For `COc1ccc(CCn2ccc(=O)c(O)c2C)cc1OC`, the GI50 in the assay on SNB-19 was 16 µM (inactive); with NCI-H23, 27.9 µM (inactive); in the assay on SK-MEL-5 it was 13.5 µM (inactive); in the assay on HL-60 it was 32.2 µM (inactive); in the assay with LOX IMVI it was 25.5 µM (inactive); in the assay with HCT-116, 37.2 µM (inactive). The GI50 in the assay with SW-620 was 41.1 µM (inactive); in the assay on DU-145 it was 12.4 µM (inactive); in the assay on OVCAR-8, 16.9 µM (inactive); in the assay on MOLT-4, 16 µM (inactive); with RPMI-8226, 34 µM (inactive); with BT-549, 52.4 µM (inactive). Besides, the GI50 in the assay with MDA-MB-231 was 1.4 µM (inactive); with COLO 205, 26.7 µM (inactive); with K562 it was 37.1 µM (inactive); in the assay on HOP-92 it was 20.4 µM (inactive).

`O=c1oc2ccccc2c(-c2ccc(O)cc2)c1Oc1ccc(Cl)cc1`: the GI50 was 20.5 µM (inactive) in the assay on NCI-H226; 22.4 µM (inactive) with SNB-19; 20.7 µM (inactive) with NCI-H23; 14.9 µM (inactive) in the assay with OVCAR-3; 18.7 µM (inactive) in the assay on SNB-75; 18.3 µM (inactive) in the assay on SK-MEL-5. The GI50 was 24.7 µM (inactive) in the assay on LOX IMVI; 15.8 µM (inactive) in the assay on HCT-116; 30.5 µM (inactive) in the assay on SW-620; 42.7 µM (inactive) in the assay with DU-145; 25.8 µM (inactive) in the assay on OVCAR-8; 20.7 µM (inactive) in the assay on RPMI-8226. Also, the GI50 with BT-549 was 23.2 µM (inactive); in the assay on MDA-MB-231, 22.4 µM (inactive); with UACC-62, 19.9 µM (inactive); in the assay on COLO 205, 23.2 µM (inactive); with K562 it was 21 µM (inactive); in the assay on HOP-92, 19.8 µM (inactive).

As to `Cc1c(O)c(=O)ccn1CCc1ccc(O)cc1`, the GI50 is 15.6 µM (inactive) in the assay with SNB-19; 35.7 µM (inactive) in the assay on NCI-H23; 11.2 µM (inactive) in the assay with OVCAR-3; 21.3 µM (inactive) with SK-MEL-5; 33.5 µM (inactive) with HL-60; 20.5 µM (inactive) in the assay with LOX IMVI. For the same compound, the GI50 was 35.7 µM (inactive) in the assay on HCT-116; 44.8 µM (inactive) in the assay with SW-620; 24.9 µM (inactive) in the assay on DU-145; 31.3 µM (inactive) with OVCAR-8; 26.8 µM (inactive) in the assay on MOLT-4; 14.7 µM (inactive) in the assay on RPMI-8226. For the same compound, the GI50 in the assay on BT-549 is > 100 µM (inactive); in the assay on MDA-MB-231, 2.2 µM (inactive); with UACC-62, 0.615 µM (active); with COLO 205 it was 31.5 µM (inactive); in the assay with K562 it was 32.7 µM (inactive); in the assay with HOP-92, 24.3 µM (inactive).

On to `c1ccc(NNC2=NCCN2)cc1`, for which the GI50 in the assay on NCI-H226, with SNB-19, in the assay on NCI-H23, in the assay with OVCAR-3, with SNB-75 and in the assay on SK-MEL-5 was > 100 µM (inactive) throughout. Besides, the GI50 in the assay with HL-60, with LOX IMVI, in the assay with HCT-116, with SW-620, in the assay with DU-145 and in the assay on OVCAR-8 was > 100 µM (inactive) throughout. Further, the GI50 in the assay with MOLT-4, with RPMI-8226, with BT-549, in the assay with MDA-MB-231, in the assay with UACC-62 and in the assay on COLO 205 was > 100 µM (inactive) throughout. The GI50 in the assay on K562 is > 100 µM (inactive).

`C#CCCOC(=O)c1ccccc1OC(C)=O`: the GI50 in the assay on NCI-H226, in the assay on SNB-19, with NCI-H23, with OVCAR-3, in the assay with SNB-75 and in the assay with SK-MEL-5 was > 100 µM (inactive) in each case. For the same compound, the GI50 with LOX IMVI, in the assay on HCT-116, in the assay with SW-620, in the assay on DU-145, with OVCAR-8 and with MOLT-4 was > 100 µM (inactive) throughout. The GI50 in the assay with RPMI-8226, in the assay on BT-549, in the assay on MDA-MB-231, in the assay with UACC-62, in the assay with COLO 205 and in the assay with K562 was > 100 µM (inactive) in each case. In the assay on HOP-92, the GI50 was > 100 µM (inactive).

`O=C(/C=C/c1ccc(O)cc1)c1cc(-c2cc(CCC(=O)c3ccc(O)cc3O)ccc2O)c(O)cc1O`: the GI50 is 26.8 µM (inactive) in the assay with SNB-19; 35.9 µM (inactive) in the assay on NCI-H23; 14.1 µM (inactive) in the assay with OVCAR-3; 19.3 µM (inactive) with SNB-75; 25.2 µM (inactive) with SK-MEL-5; 17.9 µM (inactive) with HL-60. For the same compound, the GI50 was 19.5 µM (inactive) with LOX IMVI; 19.8 µM (inactive) with HCT-116; 29.9 µM (inactive) in the assay with SW-620; 32.4 µM (inactive) with DU-145; 25.5 µM (inactive) in the assay on OVCAR-8; 7.23 µM (inactive) in the assay with MOLT-4. For the same compound, the GI50 with RPMI-8226 is 16.3 µM (inactive); with BT-549 it was 36.1 µM (inactive); with MDA-MB-231 it was 37.8 µM (inactive); with UACC-62 it was 22.8 µM (inactive); in the assay on COLO 205 it was 11.4 µM (inactive); with K562 it was 17.7 µM (inactive). Besides, the GI50 in the assay on HOP-92 was 15.2 µM (inactive).
